For orientation: pIC50 means the negative decadic logarithm of the IC50, by convention in mol/L. A higher pIC50 goes with a low IC50.

pIC50: −log10 of the molar value. Where a name gives a salt, the structure may show the parent alone.

This assay has as its system HCT 116 cells transfected with a luciferase reporter under the control of an HIF-responsive sequence. The experiment in a line: HIF-luciferase assay. Format: cell-based. Conditions: Homo sapiens; HCT 116 HIF-luciferase reporter cells, hypoxia chamber (1% O2), 24 h, luminescence. The protocol:
HCT 116 cells were transfected in a stable manner with a plasmid which contained a luciferase reporter under the control of an HIF-responsive sequence. These cells were sown in microtitre plates [20,000 cells/cavity in RPMI 1640 medium with 10% foetal calf serum (FCS) and 100 μg/ml of hygromycin]. Incubation was carried out overnight under standard conditions (5% CO2, 21% O2, 37° C., moistened). The following morning the cells were incubated with various concentrations of the test substances (0-10 μmol/l) in a hypoxia chamber (1% O2). After 24 h, Bright Glo reagent (Promega, Wis., USA) was added in accordance with the manufacturer'/s instructions, and after 5 min the luminescence was measured. Cells which were incubated under normoxia served as background controls.
Compound `Cc1cc(-c2nc(-c3ccc(OC(F)(F)F)cc3)no2)nn1Cc1ccnc(N2CCC(N(C)C)CC2)c1` [Example 16, N,N-Dimethyl-1-{4-[(5-methyl-3-{3-[4-(trifluoromethoxy)phenyl]-1,2,4-oxadiazol-5-yl}-1H-pyrazol-1-yl)methyl]pyridin-2-yl}piperidin-4-amine] gave a pIC50 of 8.40.
In turn, `Cc1cc(-c2nc(-c3ccc(OC(F)(F)F)cc3)no2)nn1Cc1ccnc(N2CC(N(C)C)C2)c1` [Example 18] gave a pIC50 of 8.30.
`Cc1cc(-c2nc(-c3ccc(OC(F)(F)F)cc3)no2)nn1Cc1ccnc(N2CCN(C(C)C)CC2)c1` [Example 21] gave a negative-log IC50 (pIC50) of 8.00. This pIC50 lies 0.30 log units lower than the previous one.
The same measure for `Cc1cc(-c2nc(-c3ccc(OC(F)(F)F)cc3)no2)nn1Cc1cccc(C(=O)N2CCN(C3CC3)CC2)c1` [Example 35]: 8.70.
In turn, `Cc1cc(-c2nc(-c3ccc(S(=O)(=O)C(F)(F)F)cc3)no2)nn1Cc1cccc(C(=O)N2CCN(C)CC2)c1` [Example 41] gave a pIC50 of 8.22.
`Cc1cc(-c2nc(-c3ccc(C4(F)CCOCC4)cc3)no2)nn1Cc1cccc(C(=O)N2CCN(C)CC2)c1` [Example 45]: the negative-log IC50 (pIC50) was 8.00.
Consider `Cc1cc(-c2nc(-c3ccc(OC(F)(F)F)cc3)no2)cn1Cc1cccc(C(=O)N2CCN(C)CC2)c1` [Example 52], for which the pIC50 is 8.52.
In turn, `Cc1cc(-c2nc(-c3ccc(OC(F)(F)F)cc3)no2)nn1Cc1ccnc(N2CCN(C3CC3)CC2)c1` [Example 65, 1-Cyclopropyl-4-{4-[(5-methyl-3-{3-[4-(trifluoromethoxy)phenyl]-1,2,4-oxadiazol-5-yl}-1H-pyrazol-1-yl)methyl]pyridin-2-yl}piperazine] gave a pIC50 of 9.22.
Consider `Cc1cc(-c2nc(-c3ccc(C4CCOCC4)cc3)no2)nn1Cc1ccnc(N2CCN(C3CC3)CC2)c1` [Example 71, 1-Cyclopropyl-4-{4-[(5-methyl-3-{3-[4-(tetrahydro-2H-pyran-4-yl)phenyl]-1,2,4-oxadiazol-5-yl}-1H-pyrazol-1-yl)methyl]pyridin-2-yl}piperazine], for which the pIC50 is 9.00. This pIC50 lies 0.22 log units lower than the previous one.
On to `Cc1cc(-c2nc(-c3ccc(OC(F)(F)F)cc3)no2)nn1Cc1ccnc(N2CCN(CC(F)(F)F)CC2)c1` [Example 72, 1-{4-[(5-Methyl-3-{3-[4-(trifluoromethoxy)phenyl]-1,2,4-oxadiazol-5-yl}-1H-pyrazol-1-yl)-methyl]pyridin-2-yl}-4-(2,2,2-trifluoroethyl)piperazine], for which the negative-log IC50 (pIC50) is 9.00.
As to `Cc1cc(-c2nc(-c3ccc(C(C)(C)C)cc3)no2)nn1Cc1ccnc(N2CCN(C3CC3)CC2)c1` [Example 75, 1-[4-({3-[3-(4-tert-Butylphenyl)-1,2,4-oxadiazol-5-yl]-5-methyl-1H-pyrazol-1-yl}methyl)pyridin-2-yl]-4-cyclopropylpiperazine], the pIC50 was 9.00.
In turn, `COCC1(c2ccc(-c3noc(-c4cc(C)n(Cc5ccnc(N6CCN(C7CC7)CC6)c5)n4)n3)cc2)CCC1` [Example 77, 1-Cyclopropyl-4-(4-{[3-(3-{4-[1-(methoxymethyl)cyclobutyl]phenyl}-1,2,4-oxadiazol-5-yl)-5-methyl-1H-pyrazol-1-yl]methyl}pyridin-2-yl)piperazine] had a negative logarithm of the IC50 (pIC50) of 9.00.
Take `Cc1cc(-c2nc(-c3ccc(C(C)(C)C)cc3)no2)nn1Cc1ccnc(N2CCN(CC(F)(F)F)CC2)c1` [Example 78, 1-[4-({3-[3-(4-tert-Butylphenyl)-1,2,4-oxadiazol-5-yl]-5-methyl-1H-pyrazol-1-yl}methyl)pyridin-2-yl]-4-(2,2,2-trifluoroethyl)piperazine]: the pIC50 is 9.30.
The same measure for `Cc1cc(-c2nc(-c3ccc(OC(F)(F)F)cc3)no2)nn1Cc1ccnc(N2CCC(C#N)CC2)c1` [Example 85, 1-{4-[(5-Methyl-3-{3-[4-(trifluoromethoxy)phenyl]-1,2,4-oxadiazol-5-yl}-1H-pyrazol-1-yl)-methyl]pyridin-2-yl}piperidine-4-carbonitrile]: 8.70; for `Cc1cc(-c2nc(-c3ccc(OC(F)(F)F)cc3)no2)nn1Cc1ccnc(N2CCN(C)C(=O)C2)c1` [Example 86, 1-Methyl-4-{4-[(5-methyl-3-{3-[4-(trifluoromethoxy)phenyl]-1,2,4-oxadiazol-5-yl}-1H-pyrazol-1-yl)methyl]pyridin-2-yl}piperazin-2-one]: 8.40; for `Cc1cc(-c2nc(-c3ccc(C4(C(F)(F)F)CC4)cc3)no2)nn1Cc1ccnc(N2CCN(C3CC3)CC2)c1` [Example 91, 1-Cyclopropyl-4-(4-{[5-methyl-3-(3-{4-[1-(trifluoromethyl)cyclopropyl]phenyl}-1,2,4-oxadiazol-5-yl)-1H-pyrazol-1-yl]methyl}pyridin-2-yl)piperazine]: 9.22.
Compound `Cc1cc(-c2nc(-c3ccc(OC(F)(F)F)c(F)c3)no2)nn1Cc1ccnc(N2CCN(C3CC3)CC2)c1` [Example 93, 1-Cyclopropyl-4-{4-[(3-{3-[3-fluoro-4-(trifluoromethoxy)phenyl]-1,2,4-oxadiazol-5-yl}-5-methyl-1H-pyrazol-1-yl)methyl]pyridin-2-yl}piperazine] gave a pIC50 of 9.10.
The figure for `Cc1cc(-c2nc(-c3ccc(OC(F)(F)F)cc3)no2)nn1Cc1cccc(C(=O)N2CCCO2)c1` [Example 100, {3-[(5-Methyl-3-{3-[4-(trifluoromethoxy)phenyl]-1,2,4-oxadiazol-5-yl}-1H-pyrazol-1-yl)methyl]-phenyl}(1,2-oxazolidin-2-yl)methanone] is 8.60; for `Cc1cc(-c2nc(-c3cccc(OC(F)(F)F)c3)no2)nn1Cc1cccc(C(=O)N2CCN(C)CC2)c1` [Example 119, (4-Methylpiperazin-1-yl) {3-[(5-methyl-3-{3-[3-(trifluoromethoxy)phenyl]-1,2,4-oxadiazol-5-yl}-1H-pyrazol-1-yl)methyl]phenyl}methanone hydrochloride] it is 7.70; for `Cc1cc(-c2nc(-c3ccc(C4(C(F)(F)F)CC4)cc3)no2)nn1Cc1cccc(C(=O)N2CCN(C)CC2)c1` [Example 137, (4-Methylpiperazin-1-yl)(3-{[5-methyl-3-(3-{4-[1-(trifluoromethyl)cyclopropyl]phenyl}-1,2,4-oxadiazol-5-yl)-1H-pyrazol-1-yl]methyl}phenyl)methanone] it is 8.52.
Turning to `Cc1cc(-c2nc(-c3ccc(C(C)(C)C(F)(F)F)cc3)no2)nn1Cc1cccc(S(=O)(=O)N2CCC(O)CC2)c1` [Example 140, 1-({3-[(5-Methyl-3-{3-[4-(1,1,1-trifluoro-2-methylpropan-2-yl)phenyl]-1,2,4-oxadiazol-5-yl}-1H-pyrazol-1-yl)methyl]phenyl}sulfonyl)piperidin-4-ol], the pIC50 is 8.40. This pIC50 and that of the compound before are within 0.2 log units of each other.
`COC1CCN(c2cc(Cn3nc(-c4nc(-c5ccc(OC(F)(F)F)cc5)no4)cc3C)ccn2)CC1` [Example 150, 2-(4-Methoxypiperidin-1-yl)-4-[(5-methyl-3-{3-[4-(trifluoromethoxy)phenyl]-1,2,4-oxadiazol-5-yl}-1H-pyrazol-1-yl)methyl]pyridine]: the pIC50 was 8.52.

These data come from patent US20130196964A1, “HETEROCYCLICALLY SUBSTITUTED ARYL COMPOUNDS AS HIF INHIBITORS” (BAYER SCHERING PHARMA AKTIENGESELLSCHAFT, priority 2008, published 2013).
